Results as given in ChEMBL document CHEMBL1221163, “Monocarboxylate transporter MCT1 is a target for immunosuppression” (Nat Chem Biol, 2005).
Blank lines part the entries; values can stand above or below the molecule they belong to. Activity calls are given as the source filed them. No cut-off for these calls is given here.

Key:
PBMC = assay: Antiproliferative activity against human PBMC assessed as inhibition of PMA/ionomycin-stimulated cell proliferation by [3H]thymidine incorporation assay; format: functional, cell-based
T-cell [1] = assay: Antiproliferative activity against human T cells assessed as inhibition of PMA-ionomycin stimulated cell proliferation by [3H]thymidine incorporation assay; format: functional, cell-based
T-cell [2] = assay: Antiproliferative activity against Lewis rat T cells assessed as inhibition of PMA-ionomycin stimulated cell proliferation by [3H]thymidine incorporation assay; format: functional, cell-based
[3] = molecular target: T1, Monocarboxylate transporter 1 (Rattus norvegicus) (UniProt P53987); assay: 6-[[4-azido-3-(iodo-125I)phenyl]methyl]-2,6-dihydro-2-methyl-4-(2-methylpropyl)-1H-pyrrolo[3,4-d]pyridazin-1-one from MCT1 in rat RBC ghost membranes at 1 uM by photoaffinity labeling study; format: cell membranes
T1 sequence (whole entry): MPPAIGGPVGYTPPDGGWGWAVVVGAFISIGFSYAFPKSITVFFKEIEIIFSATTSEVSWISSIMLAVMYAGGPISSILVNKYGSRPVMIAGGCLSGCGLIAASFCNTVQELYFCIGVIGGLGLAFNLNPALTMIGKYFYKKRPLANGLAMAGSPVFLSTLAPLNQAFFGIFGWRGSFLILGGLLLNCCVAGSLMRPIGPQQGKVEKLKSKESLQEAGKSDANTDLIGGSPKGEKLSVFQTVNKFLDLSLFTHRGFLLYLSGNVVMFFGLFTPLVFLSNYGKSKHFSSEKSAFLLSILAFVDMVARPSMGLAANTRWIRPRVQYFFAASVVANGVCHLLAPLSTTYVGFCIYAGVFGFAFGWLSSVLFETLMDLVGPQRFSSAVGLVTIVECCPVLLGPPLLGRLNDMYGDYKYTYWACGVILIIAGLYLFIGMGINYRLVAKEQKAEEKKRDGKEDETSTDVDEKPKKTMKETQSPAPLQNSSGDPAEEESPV

[4] = Antiproliferative activity against human T cells assessed as inhibition of PMA-ionomycin stimulated cell proliferation after 3 days by [3H]thymidine incorporation assay; format: functional, cell-based
T-cell [5] = assay: Increase in intracellular lactate production in PMA-ionomycin stimulated human T cells after 4 hrs; format: functional, cell-based
T-cell [6] = assay: Inhibition of DNA synthesis in PMA-ionomycin stimulated human T cells after 4 hrs by [3H]thymidine incorporation assay; format: functional, cell-based
T-cell [7] = assay: Reduction in extracellular lactate production in PMA-ionomycin stimulated human T cells after 4 hrs; format: functional, cell-based
[8] = molecular target: T1, Monocarboxylate transporter 1 (Rattus norvegicus); assay: 6-[[4-azido-3-(iodo-125I)phenyl]methyl]-2,6-dihydro-2-methyl-4-(2-methylpropyl)-1H-pyrrolo[3,4-d]pyridazin-1-one from MCT1 in rat RBC membranes at 50 nM by photoaffinity labeling study; format: cell membranes
[9] = molecular target: T2, Monocarboxylate transporter 1 (Homo sapiens, UniProt P53985); assay: Displacement of [3H]5-[(3-hydroxypropyl)thio]-3-methyl-1-[2-(methyl-t)propyl-2,3-t2]-6-(1-naphthalenylmethyl)-1H-pyrrolo[3,4-d]pyrimidine-2,4(3H,6H)-dione from MCT1 in human Jurkat cell membranes
T2 sequence (P53985 whole entry): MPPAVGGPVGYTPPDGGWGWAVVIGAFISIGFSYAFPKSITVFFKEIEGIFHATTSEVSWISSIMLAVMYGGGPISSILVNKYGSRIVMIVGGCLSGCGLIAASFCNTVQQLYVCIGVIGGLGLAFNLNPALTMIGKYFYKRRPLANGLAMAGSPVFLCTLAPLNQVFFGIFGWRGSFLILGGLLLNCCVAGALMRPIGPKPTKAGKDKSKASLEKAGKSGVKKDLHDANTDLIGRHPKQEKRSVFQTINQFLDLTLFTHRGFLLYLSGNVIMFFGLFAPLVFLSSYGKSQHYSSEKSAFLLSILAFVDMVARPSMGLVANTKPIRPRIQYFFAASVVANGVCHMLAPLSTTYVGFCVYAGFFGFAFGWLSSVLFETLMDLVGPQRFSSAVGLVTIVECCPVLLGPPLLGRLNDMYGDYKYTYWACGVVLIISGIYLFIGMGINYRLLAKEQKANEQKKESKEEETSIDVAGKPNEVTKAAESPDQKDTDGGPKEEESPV

HT-29 [10] = assay: Antiproliferative activity against human HT-29 cells assessed as inhibition of cell proliferation at 1 uM by fluorimetric assay; format: functional
K562 [11] = assay: Antiproliferative activity against human K562 cells assessed as inhibition of cell proliferation at 1 uM by fluorimetric assay; format: functional
Rattus norvegicus [12] = species on record: Rattus norvegicus; conditions: DA/Lewis, 4 mg/kg
ZR-75-1 [13] = assay: Antiproliferative activity against human ZR-75-1 cells assessed as inhibition of cell proliferation at 1 uM by fluorimetric assay; format: functional
T-24 [14] = assay: Antiproliferative activity against human T24 cells assessed as inhibition of cell proliferation by fluorimetric assay; format: functional, cell-based
HUVEC [15] = assay: Antiproliferative activity against human HUVEC assessed as inhibition of acidic FGF-stimulated cell proliferation at 1 uM by fluorimetric assay; format: functional
[16] = molecular target: T3, Monocarboxylate transporter 3 (Homo sapiens) (UniProt O95907); assay: Inhibition of human MCT3 expressed in INS1 cells assessed as reduction in intracellular acidification at 100 nM after 1 hr by L-Lactate uptake based BCECF staining; format: cell-based
T3 sequence (whole entry): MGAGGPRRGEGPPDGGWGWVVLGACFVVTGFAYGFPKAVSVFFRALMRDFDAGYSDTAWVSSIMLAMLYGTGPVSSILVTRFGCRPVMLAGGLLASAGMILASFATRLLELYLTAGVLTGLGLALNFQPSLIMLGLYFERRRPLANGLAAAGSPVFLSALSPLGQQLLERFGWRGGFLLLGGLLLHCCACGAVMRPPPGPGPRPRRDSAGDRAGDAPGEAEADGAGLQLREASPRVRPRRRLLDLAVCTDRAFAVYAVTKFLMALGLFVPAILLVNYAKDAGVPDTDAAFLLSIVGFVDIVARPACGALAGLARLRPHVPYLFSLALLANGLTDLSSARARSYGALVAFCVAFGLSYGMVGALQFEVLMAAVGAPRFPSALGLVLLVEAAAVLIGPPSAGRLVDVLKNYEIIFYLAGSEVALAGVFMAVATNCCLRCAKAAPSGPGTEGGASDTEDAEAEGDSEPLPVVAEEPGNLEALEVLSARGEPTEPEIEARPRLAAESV

PANC-1 [17] = assay: Antiproliferative activity against human PANC1 cells assessed as inhibition of cell proliferation at 1 uM by fluorimetric assay; format: functional
SW480 [18] = assay: Antiproliferative activity against human SW480 cells assessed as inhibition of cell proliferation by fluorimetric assay; format: functional, cell-based
THP-1 [19] = assay: Antiproliferative activity against human THP1 cells assessed as inhibition of cell proliferation at 1 uM by fluorimetric assay; format: functional
HUVEC [20] = assay: Antiproliferative activity against human HUVEC assessed as inhibition of acidic FGF-stimulated cell proliferation by fluorimetric assay; format: functional, cell-based
THP-1 [21] = assay: Antiproliferative activity against human THP1 cells assessed as inhibition of cell proliferation by fluorimetric assay; format: functional, cell-based
HEK293 [22] = assay: Antiproliferative activity against HEK293 cells assessed as inhibition of cell proliferation by fluorimetric assay; format: functional, cell-based; conditions: Homo sapiens
SW480 [23] = assay: Antiproliferative activity against human SW480 cells assessed as inhibition of cell proliferation at 1 uM by fluorimetric assay; format: functional
T-24 [24] = assay: Antiproliferative activity against human T24 cells assessed as inhibition of cell proliferation at 1 uM by fluorimetric assay; format: functional
K562 [25] = assay: Antiproliferative activity against human K562 cells assessed as inhibition of cell proliferation by fluorimetric assay; format: functional, cell-based
T-cell [26] = conditions: Homo sapiens, 10 uM
[27] = Antiproliferative activity against human primary epidermal keratinocytes assessed as inhibition of cell proliferation at 1 uM by fluorimetric assay; format: functional; conditions: Keratinocyte
PANC-1 [28] = assay: Antiproliferative activity against human PANC1 cells assessed as inhibition of cell proliferation by fluorimetric assay; format: functional, cell-based
[29] = Antiproliferative activity against human KIT225 cells assessed as inhibition of IL2-stimulated cell proliferation by fluorimetric assay; format: functional, cell-based
[30] = molecular target: T4, Monocarboxylate transporter 4 (Homo sapiens) (UniProt O15427); assay: Inhibition of human MCT4 expressed in INS1 cells assessed as reduction in intracellular acidification at 100 nM after 1 hr by L-Lactate uptake based BCECF staining; format: cell-based
T4 sequence (whole entry): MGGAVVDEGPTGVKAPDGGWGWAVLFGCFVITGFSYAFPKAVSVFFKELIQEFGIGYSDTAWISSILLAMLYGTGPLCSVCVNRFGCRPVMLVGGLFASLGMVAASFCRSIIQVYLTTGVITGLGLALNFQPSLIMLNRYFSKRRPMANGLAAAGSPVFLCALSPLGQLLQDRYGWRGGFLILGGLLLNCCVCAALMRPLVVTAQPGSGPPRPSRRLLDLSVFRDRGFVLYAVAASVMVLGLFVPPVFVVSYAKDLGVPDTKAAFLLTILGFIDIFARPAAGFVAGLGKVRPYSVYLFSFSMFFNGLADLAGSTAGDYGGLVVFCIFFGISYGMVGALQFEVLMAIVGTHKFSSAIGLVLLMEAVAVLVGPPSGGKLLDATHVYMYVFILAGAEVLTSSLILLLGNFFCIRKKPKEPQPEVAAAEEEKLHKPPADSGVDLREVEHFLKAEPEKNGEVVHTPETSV

[31] = Antiproliferative activity against human KIT225 cells assessed as inhibition of IL2-stimulated cell proliferation at 1 uM by fluorimetric assay; format: functional
HUVEC [32] = assay: Antiproliferative activity against human HUVEC assessed as inhibition of basic FGF-stimulated cell proliferation by fluorimetric assay; format: functional, cell-based
HUVEC [33] = assay: Antiproliferative activity against human HUVEC assessed as inhibition of basic FGF-stimulated cell proliferation at 1 uM by fluorimetric assay; format: functional
T-cell [34] = conditions: Homo sapiens, 10 uM; remark: listed apart in the source
[35] = Antiproliferative activity against human primary epidermal keratinocytes assessed as inhibition of cell proliferation by fluorimetric assay; format: functional, cell-based; conditions: Keratinocyte
ZR-75-1 [36] = assay: Antiproliferative activity against human ZR-75-1 cells assessed as inhibition of cell proliferation by fluorimetric assay; format: functional, cell-based
Rattus norvegicus [37] = assay: Inhibition of graft-versus-host response-induced lymph node expansion in DA/Lewis recipient rat administered once daily through subcutaneous route; format: functional; conditions: sc
T-cell [38] = assay: Inhibition of conversion of [1,2-13C2]glucose into [2,3-13C2]lactate in PMA-ionomycin stimulated human T cells at 10 nM after 6 hrs by GC-MS method; format: functional, cell-based
HEK293 [39] = assay: Antiproliferative activity against HEK293 cells assessed as inhibition of cell proliferation at 1 uM by fluorimetric assay; format: functional; conditions: Homo sapiens
T-cell [40] = conditions: Homo sapiens, 50 nM
HT-29 [41] = assay: Antiproliferative activity against human HT-29 cells assessed as inhibition of cell proliferation by fluorimetric assay; format: functional, cell-based
[42] = molecular target: T2, Monocarboxylate transporter 1; assay: Displacement of [3H]5-[(3-hydroxypropyl)thio]-3-methyl-1-[2-(methyl-t)propyl-2,3-t2]-6-(1-naphthalenylmethyl)-1H-pyrrolo[3,4-d]pyrimidine-2,4(3H,6H)-dione from human MCT1 expressed in INS1 cell membrane; format: cell membranes; conditions: read-out: pKi (converted)

inhibition [3]: Active
SMILES: CC(C)Cn1c(=O)n(C)c(=O)c2c(SCCCO)n(Cc3cccc4ccccc34)cc21
IC50 (PBMC): 2.45 nM
inhibition (PBMC): Active
inhibition (T-cell [1]): Active
inhibition (T-cell [2]): Active

IC50 (T-cell [5]): 4.57 nM
IC50 (T-cell [6]): 9.77 nM
IC50 (T-cell [7]): 11.5 nM
SMILES: CC(C)Cn1c(=O)n(C)c(=O)c2c(C(=O)N3CC[C@@H](O)C3)c(Cc3ccnc4ccccc34)sc21
IC50 [4]: 3.24 nM

inhibition [8]: Active
Ki [9]: > 200 nM
SMILES: CC(C)Cn1c(=O)[nH]c(=O)c2c(C(=O)N3CCC3)c(Cc3ccccc3C(F)(F)F)sc21
IC50 (PBMC): > 1000 nM

inhibition [16]: inactive
IC50 (SW480 [18]): > 1000 nM
IC50 (T-cell [5]): 0.407 nM
IC50 (THP-1 [21]): > 1000 nM
IC50 (K562 [25]): > 1000 nM
IC50 (PANC-1 [28]): > 1000 nM
inhibition [30]: inactive
IC50 (HT-29 [41]): > 1000 nM
SMILES: CC(C)Cn1c(=O)n(C)c(=O)c2c(SCCCO)c(Cc3cccc4ccccc34)sc21
inhibition at 1 µM (HT-29 [10]): < 20%
inhibition at 1 µM (K562 [11]): < 20%
inhibition (Rattus norvegicus [12]): Active
inhibition at 1 µM (ZR-75-1 [13]): < 20%
IC50 (T-24 [14]): > 1000 nM
inhibition at 1 µM (HUVEC [15]): < 20%
inhibition at 1 µM (PANC-1 [17]): < 20%
IC50 [4]: 0.234 nM
inhibition at 1 µM (THP-1 [19]): < 20%
inhibition (PBMC): Active
IC50 (HUVEC [20]): > 1000 nM
IC50 (HEK293 [22]): > 1000 nM
inhibition at 1 µM (SW480 [23]): < 20%
inhibition at 1 µM (T-24 [24]): < 20%
inhibition (T-cell [26]): inactive
inhibition at 1 µM [27]: < 20%
IC50 [29]: 1.1 nM
inhibition at 1 µM [31]: 61%
inhibition (T-cell [1]): Active
IC50 (HUVEC [32]): > 1000 nM
inhibition at 1 µM (HUVEC [33]): < 20%
inhibition (T-cell [34]): inactive
IC50 [35]: > 1000 nM
IC50 (ZR-75-1 [36]): > 1000 nM
inhibition (T-cell [2]): Active
ED50 (Rattus norvegicus [37]): 1.4 mg/kg/day
inhibition (T-cell [38]): Active
inhibition at 1 µM (HEK293 [39]): < 20%
inhibition (T-cell [40]): Active

Ki [9]: 3.39 nM
IC50 (T-cell [5]): 4.79 nM
IC50 (T-cell [6]): 11.7 nM
IC50 (T-cell [7]): 10.2 nM
Ki [42]: 10.7 nM
SMILES: CC(C)Cn1c(=O)n(C)c(=O)c2c(C(=O)N3CC=CC3)c(Cc3ccccc3C(F)(F)F)sc21
IC50 [4]: 12 nM
